Legend:
[1] = Pharmacokinetic properties in rats (IV and PO, LC-MS/MS); assay type: in vivo; details: for F: SD rats; for AUC(0-inf) / Cmax / clearance / half-life / Vd: male, Sprague-Dawley (SD), rat, plasma; for Vd: read-out: Vz
Method: • 1. Test purpose: to determine the pharmacokinetic characteristics of some of the example compound of the present invention in SD rats after single intravenous injection(IV) and oral administration(PO) by LC-MS/MS method. • 2. […] Animal production license number (SCXK (Shanghai) 2018-0006). • 3. Test method:
Preparation of 0.5% methyl cellulose: 5 g of methyl cellulose were weighed and dissolved in 1000 mL of purified water.
Preparation of oral formulation: A required amount of test compound was weighed and dissolved in 0.5% methyl cellulose solution to obtain a suspension or solution of 0.5 mg/mL.
Preparation of intravenous injection formulation: A required amount of test compound was weighed, and dissolved in 0.5 mL of dimethyl sulfoxide to prepare a solution of 4 mg/mL. 0.25 mL of the above solution was added into 0.5 mL of polyethylene glycol 15 hydroxystearate (solutol) and 4.25 mL of normal saline to obtain a solution of 0.2 mg/mL.
The dosage and volume administered were shown in the table below Feeding, 4 hours after administration
Sample Collection: blood is collected through jugular vein or other suitable vein, and 0.2 mL of blood was collected at each time point. Samples were placed into tubes containing ethylenediaminetetraacetic acid dipotassium salt and kept on ice before centrifugation. Within 1 hour after blood collection, the blood samples were centrifuged at 2-8° C. and 6800 g for 6 minutes and stored at −80° C. The time point for blood collection was 0.083, 0.25, 0.5, 1, 2, 4, 8 and 24 hours after intravenous administration, and 0.25, 0.5, 1, 2, 4, 6, 8 and 24 hours after oral administration.

CYP 3A4 = CYP 3A4 (Homo sapiens, UniProt P08684); experiment: CYP inhibition test, human liver microsomes, CYP3A4; details: IC50(μM)
Method: • 1. Test purpose: to evaluate the inhibitory ability of some of the example compounds of the present invention against CYP1A2, 2B6, 2C8, 2C9, 2C19, 2D6 and 3A4 via human liver microsomes. • 2. […] Test method:
• 1. K/Mg buffer: the components were 0.1 mol/L potassium phosphate and 5 mmol/L magnesium chloride with pH 7.4±0.1, preheated. • 2. Solution of the test compound: the test compound was dissolved in dimethyl sulfoxide to prepare a stock solution of 10 mmol/L. 8 μL of 10 mmol/L stock solution was transferred to a 96-well plate containing 12 μL of acetonitrile as the highest concentration point, at 3-fold dilution, for 8 concentrations. • 3. […] Human liver microsomal stock solution: human liver microsomes were dissolved in 0.1 mol/L K/Mg buffer to obtain 20 mg/mL stock solution. • 5. Human liver microsomal working solution: 10 μL of 20 mg/mL human liver microsomal stock solution was taken and added into 990 μL of 0.1 mol/L K/Mg buffer to prepare 0.2 mg/mL human liver microsomal solution. • 6.
600 μL of 0.2 mg/mL human liver microsomal solution and 3 μL of stepwise diluted test compound solution were added to the 96-well plate. 30 μL of the above solution was added on the 96-well plate followed by the addition of 15 μL of the corresponding substrate solution. The 96-well plate and the NADPH solution were pre-incubated at 37° C. for 5 minutes, and 15 μL of NADPH solution was added to the 96-well plate to start the reaction. The assay plate was incubated at 37° C. for 5 minutes for 3A4, 10 minutes for 1A2, 2B6 and 2C9, 20 minutes for 2C8 and 2D6, and 45 minutes for 2C19. Then the reaction was terminated by 180 μL of acetonitrile containing internal standard substance. After quenching, the plate was shook for 10 minutes (600 rpm/min) and then centrifuged at 6000 rpm for 15 minutes. 80 μL of supernatant was taken from each well and transferred to a 96-well sample plate containing 120 μL of ultrapure water for LC-MS/MS analysis.

[2] = Plasma protein binding assay (equilibrium dialysis), monkey plasma; assay type: in vitro ADME; details: pH 7.4, equilibrium dialysis 5 hours, read-out: Plasma protein binding rate (%) (converted)
Method: • 1. Test purpose: to evaluate the protein binding rate of the test compound in human, dog, monkey, rat and mouse plasma by equilibrium dialysis; • 2. […] Experimental methods: • 0.1 mol/L sodium phosphate and 0.15 mol/L sodium chloride buffer with pH 7.4±0.1 was preheated;
Preparation of plasma containing test substance: the test compound was dissolved in DMSO to prepare a 10 mmol/l stock solution. 5 μL of stock solution was taken and diluted with 95 μL of acetonitrile to obtain solution A (0.5 mmol/L). 8 μL of solution A was taken and diluted with 192 μL of 0.1 mol/L sodium phosphate buffer to obtain solution B (0.02 mmol/L). 570 μL of plasma was added into a 96-well plate followed by the addition of 30 μL of solution B. The final concentration was 1 μmol/L with 0.01% DMSO.
The plate was shook at 600 rpm for 10 minutes, covered and stored in a freezer (−20° C.).
T5 sample preparation (in triplicate): the dialysis device was added with 100 μL of buffer on its receiver side and 100 μL of plasma containing the test compound on its doner side. And the dialysis device was then shook at 37° C. and 120 rpm for 5 hours. At the end of culture, 25 μL of plasma containing the test substance was taken from the plasma side and then added to a 96-well plate, followed by the addition of 25 μL of buffer and 200 μL of acetonitrile solution containing internal standard. […]

[3] = CYP 3 A4-M, substrate midazolam
[4] = CYP 3 A4-T, substrate testosterone

Chain of CYP 3A4 (P08684 whole entry): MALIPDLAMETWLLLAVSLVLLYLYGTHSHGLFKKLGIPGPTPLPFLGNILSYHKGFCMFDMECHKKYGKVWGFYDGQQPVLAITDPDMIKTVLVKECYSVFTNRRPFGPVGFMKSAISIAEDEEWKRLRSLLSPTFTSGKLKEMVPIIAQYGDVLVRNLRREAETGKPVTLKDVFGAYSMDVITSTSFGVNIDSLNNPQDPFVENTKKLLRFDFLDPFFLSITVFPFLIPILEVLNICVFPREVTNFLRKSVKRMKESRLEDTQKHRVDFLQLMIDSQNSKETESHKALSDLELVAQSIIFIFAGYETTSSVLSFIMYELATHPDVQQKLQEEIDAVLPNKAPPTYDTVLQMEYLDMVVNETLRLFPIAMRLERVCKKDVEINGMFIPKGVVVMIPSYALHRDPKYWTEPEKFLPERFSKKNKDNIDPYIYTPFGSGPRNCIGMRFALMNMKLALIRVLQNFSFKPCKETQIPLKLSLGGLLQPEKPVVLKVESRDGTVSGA

Compound	F ([1]; oral gavage, 5 mg/kg) [%]	AUC(0-inf) ([1]; intravenous injection, 1 mg/kg) [ng·h/mL]	Cmax ([1]; intravenous injection, 1 mg/kg) [ng/mL]	clearance ([1]; intravenous injection, 1 mg/kg) [mL/min/kg]	half-life ([1]; intravenous injection, 1 mg/kg) [h]	Vd ([1]; intravenous injection, 1 mg/kg) [L/kg]	AUC(0-inf) ([1]; oral gavage, 5 mg/kg) [ng·h/mL]	Cmax ([1]; oral gavage, 5 mg/kg) [ng/mL]	half-life ([1]; oral gavage, 5 mg/kg) [h]	IC50 (CYP 3A4; [3]) [µM]	IC50 (CYP 3A4; [4]) [µM]	fraction unbound at 5 h, 1 μmol/L [2]
C=CC(=O)N1CCN(c2nc(=O)n(-c3c(C)ccnc3C(C)C)c3nc(-c4c(O)cccc4F)c(F)cc23)[C@@H](C)C1 [AMG510]	35.41	319	762	50.7	0.36	1.57	584	1260	1.81	5.07	> 10	0.017
C=C(F)C(=O)N1CCN(c2nc(OC[C@@H]3CCCN3C)nc3c2CCN(c2cccc4cccc(Cl)c24)C3)C[C@@H]1CC#N [MRTX849]	13.66	348	137	48.1	3.16	13.1	238	23.3	2.8	6.83	> 10	0.013

Source: patent US20250034161A1, “SPIROCYCLIC COMPOUND AS KRAS-G12C INHIBITOR” (Shanghai Euregen Biopharma Co., Ltd., priority 2020, published 2025)
